Measurements published in patent US20060173015A1, “Cyclohexyldiamines as selective alpha 1a/1d adrenoreceptor antagonists for the treatment of benign prostatic hypertrophy and lower urinary tract symptoms” (priority 2004, published 2006).

Test system: IUP
Test: Phenylephrine-induced IUP in a conscious canine model
Assay type: in vivo
Settings: conscious dog
Method: In-Vivo Evaluation of α1-Adrenergic Antagonists on IUP and MAP in a Conscious Canine Model
An anesthetized dog was fitted with a balloon catheter for the measurement of changes in prostatic IUP and with a number of implanted pressure transducers and telemetry transmitters for measuring MAP.
The pressor effects of challenge doses […] of the α-adrenergic agonist phenylephrine upon IUP and MAP were measured before and at various time points after a single dose (p.o.) of an α-adrenergic antagonist test compound (Compound 69) of the present invention.
Each treatment group was dosed with a test compound (0.1, 0.3, 1.0 and 3.0 mg/kg) in four separate experiments. The first challenge dose of phenylephrine for each treatment group was administered at the time of the test compound dose (time 0). The value for the first challenge dose represents an average of up to three challenge doses administered prior to time 0.
Subsequent challenge doses for all treatment groups were administered at 30 min. then one hour and two hours after time 0.
The final challenge doses for the 0.1 and 0.3 mg/kg groups were administered at four and six hours after time 0. The final challenge doses for the 1.0 mg/kg group were administered at four, six and eight hours after time 0. The final challenge doses for the 3.0 mg/kg group were administered at four, six, 12 and 24 hours after time 0.
A 7F Fogarty balloon catheter lubricated with a water-soluble jelly was inserted into the urethra and advanced into the bladder (approximately 40 cm). The balloon was inflated with approximately water (0.2 mL). The catheter was slowly withdrawn from the bladder to just past the point of first resistance from the bladder neck in order to position the balloon within the prostatic urethra. The balloon was then inflated to approximately 0.7 mL. The balloon port of the catheter was connected to a Gould Statham pressure transducer, the output of which was connected to the pressure input of a Physio Control VSM1 Patient Monitor.
A test compound was administered via the cephalic or saphenous vein using an appropriately sized IV catheter (Surflo, Terumo Medical Corporation or equivalent).
Prior to test compound administration, IUP and MAP responses to an individualized dose of phenylephrine (either 10 or 15 μg/kg IV, depending on the individual animal's response) was repeated 2 to 3 times to establish a baseline response. After test compound administration, the individualized phenylephrine dose was administered to each animal at predetermined intervals over a period of up to 24 hours.
Data for phenylephrine-induced changes in IUP and MAP were tabulated for each treatment group and each experiment. A mean value and standard deviation for the phenylephrine-induced changes to the effect of a test compound on IUP and MAP at each dose was calculated and tabulated for each treatment group over the length of the study.

**Q.** Which “IUP, normalized % of baseline (mean)” value (0.1 mg/kg p.o., 0 hrs (baseline)) does the source give for `COc1ccc(S(=O)(=O)N[C@H]2CC[C@@H](N3CCN(c4ccccc4OCC(F)(F)F)CC3)CC2)cc1OC` [Cpd 69, 3,4-Dimethoxy-N-cis-(4-{4-[2-(2,2,2-trifluoro-ethoxy)-phenyl]-piperazin-1-yl}-cyclohexyl)-benzenesulfonamide] here?
**A.** 100%

**Q.** And the “IUP, normalized % of baseline (mean)” value (0.1 mg/kg p.o., 0.5 hrs after dose)?
**A.** 87.3%

**Q.** What about the “IUP, normalized % of baseline (mean)” value (0.1 mg/kg p.o., 1 hrs after dose) of the same compound?
**A.** 78.3%

**Q.** What about the “IUP, normalized % of baseline (mean)” value (0.1 mg/kg p.o., 2 hrs after dose) of the same compound?
**A.** 78.8%

**Q.** What about the “IUP, normalized % of baseline (mean)” value (0.1 mg/kg p.o., 4 hrs after dose) of the same compound?
**A.** 82.5%

**Q.** What about the “IUP, normalized % of baseline (mean)” value (0.1 mg/kg p.o., 6 hrs after dose) of the same compound?
**A.** 86.5%

**Q.** And the “IUP, normalized % of baseline (mean)” value (0.3 mg/kg p.o., 0 hrs (baseline))?
**A.** 100%

**Q.** What about the “IUP, normalized % of baseline (mean)” value (0.3 mg/kg p.o., 0.5 hrs after dose) of the same compound?
**A.** 63.0%

**Q.** And the “IUP, normalized % of baseline (mean)” value (0.3 mg/kg p.o., 1 hrs after dose)?
**A.** 47.0%

**Q.** And the “IUP, normalized % of baseline (mean)” value (0.3 mg/kg p.o., 2 hrs after dose)?
**A.** 51.1%

**Q.** And the “IUP, normalized % of baseline (mean)” value (0.3 mg/kg p.o., 4 hrs after dose)?
**A.** 70.0%

**Q.** And the “IUP, normalized % of baseline (mean)” value (0.3 mg/kg p.o., 6 hrs after dose)?
**A.** 84.4%

**Q.** What about the “IUP, normalized % of baseline (mean)” value (1.0 mg/kg p.o., 0 hrs (baseline)) of the same compound?
**A.** 100%

**Q.** And the “IUP, normalized % of baseline (mean)” value (1.0 mg/kg p.o., 0.5 hrs after dose)?
**A.** 32.9%

**Q.** What about the “IUP, normalized % of baseline (mean)” value (1.0 mg/kg p.o., 1 hrs after dose) of the same compound?
**A.** 20.6%

**Q.** And the “IUP, normalized % of baseline (mean)” value (1.0 mg/kg p.o., 2 hrs after dose)?
**A.** 28.6%

**Q.** What about the “IUP, normalized % of baseline (mean)” value (1.0 mg/kg p.o., 4 hrs after dose) of the same compound?
**A.** 49.0%

**Q.** And the “IUP, normalized % of baseline (mean)” value (1.0 mg/kg p.o., 6 hrs after dose)?
**A.** 66.3%

**Q.** And the “IUP, normalized % of baseline (mean)” value (1.0 mg/kg p.o., 8 hrs after dose)?
**A.** 70.4%

**Q.** What about the “IUP, normalized % of baseline (mean)” value (3.0 mg/kg p.o., 0 hrs (baseline)) of the same compound?
**A.** 100%

**Q.** And the “IUP, normalized % of baseline (mean)” value (3.0 mg/kg p.o., 0.5 hrs after dose)?
**A.** 5.2%

**Q.** And the “IUP, normalized % of baseline (mean)” value (3.0 mg/kg p.o., 1 hrs after dose)?
**A.** 2.2%

**Q.** What about the “IUP, normalized % of baseline (mean)” value (3.0 mg/kg p.o., 2 hrs after dose) of the same compound?
**A.** 7.0%

**Q.** And the “IUP, normalized % of baseline (mean)” value (3.0 mg/kg p.o., 4 hrs after dose)?
**A.** 17.1%

**Q.** And the “IUP, normalized % of baseline (mean)” value (3.0 mg/kg p.o., 6 hrs after dose)?
**A.** 31.6%

**Q.** What about the “IUP, normalized % of baseline (mean)” value (3.0 mg/kg p.o., 12 hrs after dose) of the same compound?
**A.** 67.7%

**Q.** What about the “IUP, normalized % of baseline (mean)” value (3.0 mg/kg p.o., 24 hrs after dose) of the same compound?
**A.** 93.8%
